Assay results from article PMC8871619, “Pogostone inhibits the activity of CYP3A4, 2C9, and 2E1 in vitro” (Pharmaceutical Biology, 2021).

Columns and labels:
[1] = biological target: T1, CYP3A4 (Homo sapiens, UniProt P08684); test: Inhibition of CYP3A4 (testosterone 6β-hydroxylation) in human liver microsomes; format: in vitro ADME
T1 construct: Pooled human liver microsomes (HLMs) were purchased from BD Biosciences; tissue BD Biosciences; host or cells: pooled human liver microsomes
Method: (§1) The effect of pogostone on the activity of CYP450s was investigated with probe reactions (summarized in Table 1) in HLMs in accordance with previous studies (Zhang et al. [2007], [2020]). All incubations were conducted in triplicate with a volume of 200 μL, containing 100 mM potassium phosphate buffer (pH 7.4), NADPH-generating system (1 mM NADP^+, 10 mM glucose-6-phosphate, 1 U/mL of glucose-6-phosphate dehydrogenase, and 4 mM MgCl2), corresponding probe substrates, HLM, and 100 μM pogostone or positive inhibitors. The concentrations of positive inhibitors were: 10 μM furafylline for CYP1A2, 1 μM ketoconazole for CYP3A4, 10 μM tranylcypromine for CYP2A6, 50 μM clomethiazole for CYP2E1, 10 μM quinidine for CYP2D6, 10 μM sulphaphenazole for CYP2C9, 50 μM tranylcypromine for CYP2C19, and 5 μM montelukast for CYP2C8.
(§2) A 3 min preincubation was performed at 37 °C before the reactions were initiated by the addition of the NADPH-generating system. After the incubation, 100 μL acetonitrile or 10% trichloroacetic (for CYP2A6) was added to terminate the reactions and placed on ice. The mixture was centrifuged at 12,000 rpm for 10 min, and an aliquot (50 μL) of supernatant was transferred for corresponding metabolites analysis with HPLC.
(§3) The effect of pogostone on the activity of CYP450s was first investigated with 100 μM pogostone in HLMs. Then, the CYPs, of which the activity was inhibited by pogostone were incubated with 0, 2.5, 5, 10, 25, 50, and 100 μM pogostone and different probe substrates (20, 40, 60, and 100 μM testosterone for CYP3A4, 5, 10, 15, and 20 μM diclofenac for CYP2C9, or 25, 50, 150, and 250 μM chlorzoxazone for CYP2E1) to obtained the corresponding kinetic parameters, such as IC50 and Ki values.
(§4) The Lineweaver-Burk plots were used to obtain enzyme kinetic parameters by the least-squares linear regression of the inverse substrate concentration versus the inverse velocity. Inhibition data from the experiments that were conducted using multiple compound concentrations were represented by Dixon plots, and inhibition constant (Ki) values were calculated using non-linear regression according to the following equation: V=(VmaxS)/(Km(1+I/Ki)+S) where I is the concentration of the compound, Ki is the inhibition constant, S is the concentration of the substrate and Km is the substrate concentration at half the maximum velocity (Vmax) of the reaction. The mechanism of the inhibition was inspected using the Lineweaver–Burk plots and the enzyme inhibition models. The data comparison was performed using the Student’s t-test and performed using IBM SPSS statistics 20 (SPSS Inc., Chicago, IL, USA).

[2] = biological target: T2, CYP2C9 (Homo sapiens, UniProt P11712); test: Inhibition of CYP2C9 (diclofenac 4′-hydroxylation) in human liver microsomes; format: in vitro ADME
T2 construct: Pooled human liver microsomes (HLMs) were purchased from BD Biosciences; tissue BD Biosciences; host or cells: pooled human liver microsomes
T2 sequence (P11712 whole entry): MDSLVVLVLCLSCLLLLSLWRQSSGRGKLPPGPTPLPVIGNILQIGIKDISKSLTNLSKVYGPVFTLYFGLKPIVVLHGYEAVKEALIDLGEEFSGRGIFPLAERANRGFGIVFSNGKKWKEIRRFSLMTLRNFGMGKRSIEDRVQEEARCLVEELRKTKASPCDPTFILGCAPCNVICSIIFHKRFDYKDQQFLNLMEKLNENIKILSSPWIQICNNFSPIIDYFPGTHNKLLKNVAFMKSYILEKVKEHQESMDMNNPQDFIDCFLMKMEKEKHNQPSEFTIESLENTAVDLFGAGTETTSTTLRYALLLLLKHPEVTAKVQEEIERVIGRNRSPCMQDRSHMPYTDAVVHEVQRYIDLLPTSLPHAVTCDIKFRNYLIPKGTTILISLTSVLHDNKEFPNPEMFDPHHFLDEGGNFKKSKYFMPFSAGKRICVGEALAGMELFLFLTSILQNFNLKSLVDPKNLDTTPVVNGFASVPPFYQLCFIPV
Method: as §1, §2, §3, §4

[3] = biological target: T3, CYP2E1 (Homo sapiens, UniProt P05181); test: Inhibition of CYP2E1 (chlorzoxazone 6-hydroxylation) in human liver microsomes; format: in vitro ADME
T3 construct: Pooled human liver microsomes (HLMs) were purchased from BD Biosciences; tissue BD Biosciences; host or cells: pooled human liver microsomes
T3 sequence (P05181 whole entry): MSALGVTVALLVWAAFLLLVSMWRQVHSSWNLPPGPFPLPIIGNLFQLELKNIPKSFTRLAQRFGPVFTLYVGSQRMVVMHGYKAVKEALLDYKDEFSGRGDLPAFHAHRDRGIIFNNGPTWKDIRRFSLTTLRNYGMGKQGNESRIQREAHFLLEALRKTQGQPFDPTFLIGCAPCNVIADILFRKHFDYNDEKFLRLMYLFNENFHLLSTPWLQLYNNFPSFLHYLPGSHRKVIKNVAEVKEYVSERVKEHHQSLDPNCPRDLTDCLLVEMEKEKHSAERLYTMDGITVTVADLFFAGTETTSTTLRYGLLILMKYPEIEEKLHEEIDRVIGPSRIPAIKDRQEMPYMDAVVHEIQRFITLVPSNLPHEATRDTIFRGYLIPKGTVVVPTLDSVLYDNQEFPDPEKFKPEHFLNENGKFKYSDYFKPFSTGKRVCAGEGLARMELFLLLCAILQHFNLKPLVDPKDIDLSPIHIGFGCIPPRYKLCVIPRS
Method: as §1, §2, §3, §4

[4] = biological target: T1, CYP3A4; test: Time-dependent inhibition study of CYP3A4 in human liver microsomes; format: in vitro ADME
Method: (§5) The effect of incubation on the inhibitory effect of pogostone was evaluated by incubating for 0, 5, 10, 15, and 30 min at 37 °C. The concentration of pogostone in the time-dependent inhibition study was 20 μM with the 1 mg/mL HLMs. After incubation, an aliquot (20 μL) was transferred to another incubation tube (a final volume of 200 μL) containing an NADPH-generating system and probe substrates whose final concentrations were approximate to Km. Then, further incubations were performed to measure the residual activity. After being incubated for 10 and 30 min, the reactions were terminated by adding a 100 μL acetonitrile internal standard mix and then placed on ice; the corresponding metabolites were determined by HPLC.
Further experiments were performed to quantify the time-dependent inhibition by the KI and Kinact values. The incubation was conducted with a higher substrate concentration, which was about 4-fold to Km and 0, 2, 5, 10, 20, and 50 μM pogostone for 0, 5, 10, 15, and 30 min. A two-step incubation scheme was performed as described above.

[5] = biological target: T2, CYP2C9; test: Time-dependent inhibition study of CYP2C9 in human liver microsomes; format: in vitro ADME; conditions: 20 μM pogostone, 0-30 min, 1 mg/mL HLMs
Method: as §5

[6] = biological target: T3, CYP2E1; test: Time-dependent inhibition study of CYP2E1 in human liver microsomes; format: in vitro ADME; conditions: 20 μM pogostone, 0-30 min, 1 mg/mL HLMs
Method: as §5

[7] = set-up: method as in Chen et al. [2013]; conditions: rats, oral administration, 5 mg/kg pogostone; ref Chen et al. [2013]; cited from earlier work
[8] = 100 μM pogostone, HLMs, p < 0.05
[9] = HLMs, 0-50 μM pogostone, 0-30 min preincubation, substrate about 4-fold Km

T1 sequence (P08684 whole entry): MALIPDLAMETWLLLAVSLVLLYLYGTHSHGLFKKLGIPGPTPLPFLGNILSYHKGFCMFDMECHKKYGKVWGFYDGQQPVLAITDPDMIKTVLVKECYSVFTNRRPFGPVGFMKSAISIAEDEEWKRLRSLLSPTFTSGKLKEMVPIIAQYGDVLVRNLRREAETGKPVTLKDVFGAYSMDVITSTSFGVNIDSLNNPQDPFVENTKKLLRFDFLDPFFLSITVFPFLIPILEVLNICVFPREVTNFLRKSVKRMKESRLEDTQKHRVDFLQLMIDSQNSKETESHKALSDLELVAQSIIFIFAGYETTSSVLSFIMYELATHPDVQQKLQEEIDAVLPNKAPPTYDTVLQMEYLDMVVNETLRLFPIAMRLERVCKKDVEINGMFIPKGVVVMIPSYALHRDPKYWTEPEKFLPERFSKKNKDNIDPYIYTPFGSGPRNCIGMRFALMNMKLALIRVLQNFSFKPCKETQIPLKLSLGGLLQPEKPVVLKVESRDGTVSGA

For `Cc1cc(O)c(C(=O)CCC(C)C)c(=O)o1` [pogostone, Pogostone], the “Activity of CYP3A4 compared with negative control” value [1, 8] was “significantly inhibited”, the IC50 ([1]; HLMs, 0-100 μM pogostone, testosterone substrate) was 11.4 µM and the Ki ([1]; HLMs, Lineweaver-Burk, 20-100 μM testosterone) was 5.69 µM. For the same compound, the “Type of inhibition of CYP3A4” value ([1]; Lineweaver-Burk analysis) was “non-competitive”, the “Activity of CYP2C9 compared with negative control” value [2, 8] was “significantly inhibited” and the IC50 ([2]; HLMs, 0-100 μM pogostone, diclofenac substrate) was 12.1 µM. The Ki ([2]; HLMs, Lineweaver-Burk, diclofenac) was 6.46 µM, the “Type of inhibition of CYP2C9” value ([2]; Lineweaver-Burk analysis) was “competitive” and the “Activity of CYP2E1 compared with negative control” value [3, 8] was “significantly inhibited”. The IC50 ([3]; HLMs, 0-100 μM pogostone, chlorzoxazone substrate) was 14.9 µM, the Ki ([3]; HLMs, Lineweaver-Burk, 25-250 μM chlorzoxazone) was 7.67 µM and the “Type of inhibition of CYP2E1” value ([3]; Lineweaver-Burk analysis) was “competitive”. For the same compound, the “Effect of incubation time on inhibition of CYP3A4” value ([4]; 20 μM pogostone, 0-30 min, 1 mg/mL HLMs) was “time-dependent”, the KI value of CYP3A4 (time-dependent inhibition) [4, 9] was 5.86 µM and the “Kinact value of CYP3A4 (time-dependent inhibition)” value [4, 9] was 0.056 min⁻¹. For the same compound, the “Effect of incubation time on inhibition of CYP2C9” value [5] was “no significant effect”, the “Effect of incubation time on inhibition of CYP2E1” value [6] was “no significant effect” and the Cmax [7] was 28990 ng/mL.
